Test results as given in article PMC7582905, “Effect of Disulfide Cyclization of Ultrashort Cationic Lipopeptides on Antimicrobial Activity and Cytotoxicity” (International Journal of Molecular Sciences, 2020).

Assays:
[1] = system: Candida albicans ATCC 10231; assay: Transmission electron microscopy (TEM); assay type: cell-based; details: 2 × MIC, 5.0 × 10^6 CFU/mL, 1 h at room temperature
Experimental: TEM was used to examine ultrastructural changes in the Candida albicans ATCC 10231 cells treated with selected lipopeptides (L2, C2, L4, C4) and melittin (positive control). Fungal cells (Candida albicans ATCC 10231) were incubated in RMPI-1640 overnight. The cells were centrifuged (3500 rpm, 7 min) and resuspended in fresh RMPI-1640 medium to obtain dense cell suspension (5.0 × 10^6 CFU/mL). The high cell-density culture was prepared to facilitate TEM observations. Peptides’ concentrations were 2 × MIC. Samples were incubated for 1 h at room temperature. Importantly, MIC of selected peptides (L2, C2, L4, C4, and melittin) were also determined with dense inoculum of yeasts (5.0 × 10^6 CFU/mL). After the treatment, the fungal cells were centrifuged (3500× rpm, 10 min) and washed twice with PBS. Fungal cells were fixed with 2.5% glutaraldehyde buffered at pH 6.5 with 0.1 M sodium cacodylate (Polysciences, Warrington, PA, USA) for 6 h at room temperature. Postfixation was performed with a 1% osmium tetroxide (Polysciences, Warrington, PA, USA) solution for 2 h at 4 °C. The cells were then centrifuged and resuspended in 0.1 M cacodylate buffer (pH 6.5). After re-centrifugation, cells were dehydrated with ethanol. Yeasts were embedded in Epon 812 resin (Sigma-Aldrich) at room temperature. An ultramicrotome Leica UC7 was used to prepare ultrathin sections (55 nm). […]

C. albicans (ATCC 10231) = details: ref [5] Makovitzki et al.; cited from earlier work
From the text: When a peptide is cyclic its antifungal activity is usually remarkably higher than that of the antibacterial activity as compared that of the linear parent molecules. The differences in antifungal and antibacterial (Gram-negative) activities between the cyclic and linear lipopeptides are statistically significant (p < 0.05). Makovitzki et al. have reported a high antimicrobial activity of C16-KKkK-NH2 (originally written as C16-KKKK-NH2; k/K—D-enantiomer) against P. aeruginosa, E. coli, and S. aureus (3–6.25 μM; approx. 2.3–4.8 μg/mL) being similar to that of lipopeptide 3. However, different ...

Compound | ultrastructural changes in TEM micrographs [1] | MIC C. albicans (ATCC 10231) (C. albicans (ATCC 10231)) [µM]
CC[C@H](C)[C@H](NC(=O)CN)C(=O)NCC(=O)N[C@@H](C)C(=O)N[C@H](C(=O)N[C@@H](CC(C)C)C(=O)N[C@@H](CCCCN)C(=O)N[C@H](C(=O)N[C@@H](CC(C)C)C(=O)N[C@H](C(=O)N[C@H](C(=O)NCC(=O)N[C@@H](CC(C)C)C(=O)N1CCC[C@H]1C(=O)N[C@@H](C)C(=O)N[C@@H](CC(C)C)C(=O)N[C@H](C(=O)N[C@@H](CO)C(=O)N[C@@H](Cc1c[nH]c2ccccc12)C(=O)N[C@H](C(=O)N[C@@H](CCCCN)C(=O)N[C@@H](CCCNC(=N)N)C(=O)N[C@@H](CCCCN)C(=O)N[C@@H](CCCNC(=N)N)C(=O)N[C@@H](CCC(N)=O)C(=O)N[C@@H](CCC(N)=O)C(N)=O)[C@@H](C)CC)[C@@H](C)CC)[C@@H](C)O)[C@@H](C)O)C(C)C)C(C)C [melittin, Melittin, reference compound] | numerous vesicles are visible inside and outside the cell | 
C16-KKkK-NH2 |  | 25
